Reference: patent US10202361B2, “Pyridazinones as herbicides” (E I DU PONT DE NEMOURS AND COMPANY, priority 2014, dated 2019)

Assays:
Assay in all cases: Test C pre-/postemergence greenhouse herbicide test
Format in all cases: in vivo
[1] = test system: barnyardgrass (Echinochloa crus-galli); details: Preemergence; for Plant response rating: Barnyardgrass; for Plant response rating, Barnyardgrass: visual rating on scale 0 (no effect) to 100 (complete control), 13 to 15 d
Summary of the method: (§1)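 Seeds in loam–sand blend sprayed preemergence, and 1- to 4-leaf plants (2–18 cm) sprayed postemergence, with compounds in non-phytotoxic solvent plus surfactant. Visual rating versus controls after 13–15 d in greenhouse, 0 (no effect) to 100 (complete control).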

[2] = test system: blackgrass (Alopecurus myosuroides); details: Preemergence; for pest or weed control at 31 g/ha: 31 g ai/ha; for pest or weed control at 62 g/ha: 62 g ai/ha; for Plant response rating, Blackgrass: visual rating on scale 0 (no effect) to 100 (complete control), 13 to 15 d
Summary of the method: as §1

corn (Zea mays) = details: Preemergence; for Plant response rating, Corn: visual rating on scale 0 (no effect) to 100 (complete control), 13 to 15 d; for plant injury at 31 g/ha: 31 g ai/ha; for plant injury at 62 g/ha: 62 g ai/ha
Summary of the method: as §1

[3] = test system: crabgrass, Large (large crabgrass, Digitaria sanguinalis); details: Preemergence; for pest or weed control at 31 g/ha: 31 g ai/ha; for pest or weed control at 62 g/ha: 62 g ai/ha; for Plant response rating, Crabgrass, Large: visual rating on scale 0 (no effect) to 100 (complete control), 13 to 15 d
Summary of the method: as §1

[4] = test system: johnsongrass (Sorghum halepense); details: Preemergence; for Plant response rating, Johnsongrass: visual rating on scale 0 (no effect) to 100 (complete control), 13 to 15 d; for pest or weed control at 31 g/ha: 31 g ai/ha; for pest or weed control at 62 g/ha: 62 g ai/ha
Summary of the method: as §1

[5] = test system: nutsedge, yellow (yellow nutsedge, Cyperus esculentus); details: Preemergence; for pest or weed control at 31 g/ha: 31 g ai/ha; for pest or weed control at 62 g/ha: 62 g ai/ha; for Plant response rating, Nutsedge, Yellow: visual rating on scale 0 (no effect) to 100 (complete control), 13 to 15 d
Summary of the method: as §1

[6] = test system: pigweed (Amaranthus retroflexus); details: Preemergence; for pest or weed control at 31 g/ha: 31 g ai/ha; for pest or weed control at 62 g/ha: 62 g ai/ha; for Plant response rating, Pigweed: visual rating on scale 0 (no effect) to 100 (complete control), 13 to 15 d
Summary of the method: as §1

[7] = test system: ragweed (common ragweed, Ambrosia elatior); details: Preemergence; for pest or weed control at 31 g/ha: 31 g ai/ha; for pest or weed control at 62 g/ha: 62 g ai/ha; for Plant response rating, Ragweed: visual rating on scale 0 (no effect) to 100 (complete control), 13 to 15 d
Summary of the method: as §1

[8] = test system: waterhemp (common waterhemp, Amaranthus rudis); details: Preemergence; for Plant response rating, Waterhemp: visual rating on scale 0 (no effect) to 100 (complete control), 13 to 15 d; for Plant response rating: Waterhemp
Summary of the method: as §1

[9] = test system: wheat (winter wheat, Triticum aestivum); details: Preemergence; for Plant response rating, Wheat: visual rating on scale 0 (no effect) to 100 (complete control), 13 to 15 d; for plant injury at 62 g/ha: 62 g ai/ha
Summary of the method: as §1

[10] = test system: lambsquarters (Chenopodium album); details: Preemergence
Summary of the method: as §1

[11] = Alopecurus myosuroides, pre-emergence, Blackgrass, read-out: Plant response rating
[12] = Zea mays, pre-emergence, Corn, read-out: Plant response rating
[13] = Digitaria sanguinalis, pre-emergence, Crabgrass, Large, read-out: Plant response rating
[14] = Sorghum halepense, pre-emergence, Johnsongrass, read-out: Plant response rating
[15] = Cyperus, pre-emergence, Nutsedge, Yellow, read-out: Plant response rating
[16] = Amaranthus retroflexus, pre-emergence, Pigweed, read-out: Plant response rating
[17] = Ambrosia artemisiifolia, pre-emergence, Ragweed, read-out: Plant response rating
[18] = Triticum aestivum, pre-emergence, Wheat, read-out: Plant response rating

Structure (SMILES): CCOc1cc(=O)n(-c2ccc(F)cc2)nc1C(O)c1ccnc(C(F)(F)F)c1 (centres unmarked) [Compound 23, 5-ethoxy-2-(4-fluorophenyl)-6-[hydroxy[2-(trifluoromethyl)-4-pyridinyl]methyl]-3(2H)-pyridazinone]
- Plant response rating ([1]; 31 g ai/ha): 25
- Plant response rating ([1]; 62 g ai/ha): 25
- Plant response rating, Barnyardgrass ([1]; 8 g ai/ha): 0
- Plant response rating, Barnyardgrass ([1]; 16 g ai/ha): 0
- pest or weed control at 31 g/ha [2, 11]: 50%
- pest or weed control at 62 g/ha [2, 11]: 5%
- Plant response rating, Blackgrass ([2]; 8 g ai/ha): 0
- Plant response rating, Blackgrass ([2]; 16 g ai/ha): 0
- Plant response rating, Corn (corn (Zea mays); 8 g ai/ha): 0
- Plant response rating, Corn (corn (Zea mays); 16 g ai/ha): 5
- plant injury at 31 g/ha (corn (Zea mays); [12]): 5%
- plant injury at 62 g/ha (corn (Zea mays); [12]): 15%
- pest or weed control at 31 g/ha [3, 13]: 65%
- pest or weed control at 62 g/ha [3, 13]: 100%
- Plant response rating, Crabgrass, Large ([3]; 8 g ai/ha): 5
- Plant response rating, Crabgrass, Large ([3]; 16 g ai/ha): 50
- Plant response rating, Johnsongrass ([4]; 8 g ai/ha): 0
- Plant response rating, Johnsongrass ([4]; 16 g ai/ha): 5
- pest or weed control at 31 g/ha [4, 14]: 5%
- pest or weed control at 62 g/ha [4, 14]: 10%
- pest or weed control at 31 g/ha [5, 15]: 0%
- pest or weed control at 62 g/ha [5, 15]: 0%
- Plant response rating, Nutsedge, Yellow ([5]; 8 g ai/ha): 0
- Plant response rating, Nutsedge, Yellow ([5]; 16 g ai/ha): 0
- pest or weed control at 31 g/ha [6, 16]: 100%
- pest or weed control at 62 g/ha [6, 16]: 100%
- Plant response rating, Pigweed ([6]; 8 g ai/ha): 98
- Plant response rating, Pigweed ([6]; 16 g ai/ha): 100
- pest or weed control at 31 g/ha [7, 17]: 60%
- pest or weed control at 62 g/ha [7, 17]: 55%
- Plant response rating, Ragweed ([7]; 8 g ai/ha): 0
- Plant response rating, Ragweed ([7]; 16 g ai/ha): 60
- Plant response rating, Waterhemp ([8]; 8 g ai/ha): 85
- Plant response rating, Waterhemp ([8]; 16 g ai/ha): 100
- Plant response rating ([8]; 62 g ai/ha): 100
- Plant response rating, Wheat ([9]; 8 g ai/ha): 0
- Plant response rating, Wheat ([9]; 16 g ai/ha): 0
- plant injury at 62 g/ha [9, 18]: 10%

Structure (SMILES): CCOc1cc(=O)n(-c2ccc(F)cc2)nc1Cc1ccnc(C(F)(F)F)c1 [Compound 25, 5-ethoxy-2-(4-fluorophenyl)-6-[[2-(trifluoromethyl)-4-pyridinyl]methyl]-3 (2H)-pyridazinone]
- Plant response rating ([1]; 31 g ai/ha): 35
- Plant response rating ([1]; 62 g ai/ha): 85
- Plant response rating ([1]; 125 g ai/ha): 95
- Plant response rating ([1]; 250 g ai/ha): 98
- pest or weed control at 31 g/ha [2, 11]: 40%
- pest or weed control at 62 g/ha [2, 11]: 85%
- pest or weed control at 125 g/ha ([2]; Alopecurus myosuroides, pre-emergence, Blackgrass, 125 g ai/ha, read-out: Plant response rating): 90%
- pest or weed control at 250 g/ha ([2]; Alopecurus myosuroides, pre-emergence, Blackgrass, 250 g ai/ha, read-out: Plant response rating): 90%
- plant injury at 31 g/ha (corn (Zea mays); [12]): 10%
- plant injury at 62 g/ha (corn (Zea mays); [12]): 30%
- plant injury at 125 g/ha (corn (Zea mays); Zea mays, pre-emergence, Corn, 125 g ai/ha, read-out: Plant response rating): 35%
- plant injury at 250 g/ha (corn (Zea mays); Zea mays, pre-emergence, Corn, 250 g ai/ha, read-out: Plant response rating): 45%
- pest or weed control at 31 g/ha [3, 13]: 100%
- pest or weed control at 62 g/ha [3, 13]: 100%
- pest or weed control at 125 g/ha ([3]; Digitaria sanguinalis, pre-emergence, Crabgrass, Large, 125 g ai/ha, read-out: Plant response rating): 100%
- pest or weed control at 250 g/ha ([3]; Digitaria sanguinalis, pre-emergence, Crabgrass, Large, 250 g ai/ha, read-out: Plant response rating): 100%
- pest or weed control at 31 g/ha [4, 14]: 65%
- pest or weed control at 62 g/ha [4, 14]: 75%
- pest or weed control at 125 g/ha ([4]; Sorghum halepense, pre-emergence, Johnsongrass, 125 g ai/ha, read-out: Plant response rating): 90%
- pest or weed control at 250 g/ha ([4]; Sorghum halepense, pre-emergence, Johnsongrass, 250 g ai/ha, read-out: Plant response rating): 98%
- Plant response rating ([10]; 31 g ai/ha): 100
- Plant response rating ([10]; 62 g ai/ha): 100
- Plant response rating ([10]; 125 g ai/ha): 100
- Plant response rating ([10]; 250 g ai/ha): 100
- pest or weed control at 31 g/ha [5, 15]: 10%
- pest or weed control at 62 g/ha [5, 15]: 5%
- pest or weed control at 125 g/ha ([5]; Cyperus, pre-emergence, Nutsedge, Yellow, 125 g ai/ha, read-out: Plant response rating): 15%
- pest or weed control at 250 g/ha ([5]; Cyperus, pre-emergence, Nutsedge, Yellow, 250 g ai/ha, read-out: Plant response rating): 45%
- pest or weed control at 31 g/ha [6, 16]: 100%
- pest or weed control at 62 g/ha [6, 16]: 100%
- pest or weed control at 125 g/ha ([6]; Amaranthus retroflexus, pre-emergence, Pigweed, 125 g ai/ha, read-out: Plant response rating): 98%
- pest or weed control at 250 g/ha ([6]; Amaranthus retroflexus, pre-emergence, Pigweed, 250 g ai/ha, read-out: Plant response rating): 100%
- pest or weed control at 31 g/ha [7, 17]: 60%
- pest or weed control at 62 g/ha [7, 17]: 85%
- pest or weed control at 125 g/ha ([7]; Ambrosia artemisiifolia, pre-emergence, Ragweed, 125 g ai/ha, read-out: Plant response rating): 65%
- pest or weed control at 250 g/ha ([7]; Ambrosia artemisiifolia, pre-emergence, Ragweed, 250 g ai/ha, read-out: Plant response rating): 95%
- Plant response rating ([8]; 62 g ai/ha): 100
- Plant response rating ([8]; 125 g ai/ha): 100
- Plant response rating ([8]; 250 g ai/ha): 100
- plant injury at 62 g/ha [9, 18]: 40%
- plant injury at 125 g/ha ([9]; Triticum aestivum, pre-emergence, Wheat, 125 g ai/ha, read-out: Plant response rating): 50%
- plant injury at 250 g/ha ([9]; Triticum aestivum, pre-emergence, Wheat, 250 g ai/ha, read-out: Plant response rating): 70%
